Measurements published in PubChem BioAssay (NCI).
Values joined by “and” are separate entries in the source; they are usually repeats but may differ in a detail not shown here. Identical values can stand only once.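 How tested: cells in 96-well plates exposed to compound for 48 hours at five concentrations. At the GI50, growth is halved. TGI: total growth inhibition.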

Legend:
Assay in all cases: growth of human tumour cells (NCI), 48 h
[1] = test system: K-562 leukemia
[2] = test system: NCI-H522 lung
[3] = test system: SNB-78 CNS
[4] = test system: LXFL 529 NSCLC
[5] = test system: RXF 393 renal
[6] = test system: MOLT-4 leukemia
[7] = test system: A498 renal
[8] = test system: SK-MEL-2 melanoma
[9] = test system: DLD-1 colon
[10] = test system: BT-549 breast

Work on Cc1ccc(S(=O)(=O)NCC2CCCCC2=O)cc1 (stereo not given) yielded a TGI [1] greater than 100 µM, a TGI [2] greater than 100 µM and a TGI [3] greater than 100 µM. The TGI [4] was greater than 100 µM, the TGI [5] was greater than 100 µM and the TGI [6] was greater than 100 µM. It also gave a TGI [7] greater than 100 µM and a TGI [8] greater than 100 µM.
In the case of CCOP(=O)(Cc1ccc(CP(=O)(OCC)OCC)n1C)OCC, the TGI [1] is reported as greater than 100 µM, the TGI [2] is reported as greater than 100 µM and the TGI [9] is reported as greater than 100 µM. It also gave a TGI [4] greater than 100 µM, a TGI [5] greater than 100 µM and a TGI [6] greater than 100 µM. The TGI [8] was greater than 100 µM.
CCOC(=O)Oc1c(OC)cc(C(=O)NC2CCc3cc(OC)c(OC)c(OC)c3-c3ccc(SC)c(=O)cc32)cc1OC (stereo not given) showed a TGI [1] of 0.774 µM, a TGI [2] of less than 0.007 µM and a GI50 [9] of 0.0223 µM. For the same compound, the TGI [9] was greater than 70 µM, the GI50 [4] was less than 0.007 µM and the TGI [4] was 42.1 µM. It also gave a GI50 [6] of less than 0.007 µM, a TGI [6] greater than 70 µM and a GI50 [7] of 0.0206 µM. For the same compound, the TGI [7] was 0.514 µM and 0.0622 µM and the TGI [8] was 0.0832 µM.
CC(C)(C)OC(=O)NCC(=O)OCc1ccccc1 gave a TGI [1] greater than 100 µM, a TGI [3] greater than 100 µM and a TGI [9] greater than 100 µM. The TGI [4] was greater than 100 µM, the TGI [6] was greater than 100 µM and the TGI [7] was greater than 100 µM. It also gave a TGI [8] greater than 100 µM.
O=[n+]1c2c(n([O-])c3ccccc31)CCCCCCCCCC2 showed a TGI [1] greater than 100 µM, a TGI [2] greater than 100 µM and a TGI [3] greater than 100 µM. It also gave a TGI [9] greater than 100 µM, a TGI [4] greater than 100 µM and a TGI [6] greater than 100 µM. It also gave a TGI [8] greater than 100 µM.
In the case of CC1=Nc2ccccc2C1C(Cc1ccccc1N)c1c(C)[nH]c2ccccc12 (stereo not given), the TGI [1] is reported as 43.2 µM, the TGI [2] is reported as 31.6 µM and the TGI [9] is reported as 35.4 µM. It also gave a TGI [4] of 32.2 µM, a TGI [5] of 35.1 µM and a TGI [6] of 53.4 µM. The TGI [7] was 29.8 µM and the TGI [8] was 23 µM.
For O=C1c2ccccc2C2(Br)C(=O)c3ccccc3C12 (stereo not given), the TGI [1] was greater than 100 µM, the TGI [2] was greater than 100 µM and the TGI [9] was greater than 100 µM. The TGI [4] was greater than 100 µM, the TGI [5] was greater than 100 µM and the TGI [6] was greater than 100 µM. The TGI [8] was greater than 100 µM.
With O=[N+]([O-])c1nccn1CC(O)c1ccc(F)cc1 (stereo not given) the TGI [1] was greater than 100 µM, the TGI [2] was greater than 100 µM and the TGI [4] was greater than 100 µM. For the same compound, the TGI [5] was greater than 100 µM, the TGI [6] was greater than 100 µM and the TGI [7] was greater than 100 µM. The TGI [8] was greater than 100 µM.
O=C(O)CNc1cc(-c2ccccc2)nc(NCC(=O)O)n1 was tested, and the TGI [1] was greater than 100 µM, the TGI [2] was greater than 100 µM and the TGI [3] was greater than 100 µM. For the same compound, the TGI [9] was greater than 100 µM, the TGI [4] was greater than 100 µM and the TGI [6] was greater than 100 µM. For the same compound, the TGI [8] was greater than 100 µM.
CNC(=S)NC1CCCCC1NC(=S)NC (stereo not given) showed a TGI [1] greater than 100 µM, a TGI [2] greater than 100 µM and a TGI [3] greater than 100 µM. For the same compound, the TGI [9] was greater than 100 µM, the TGI [4] was greater than 100 µM and the TGI [6] was greater than 100 µM. For the same compound, the TGI [8] was greater than 100 µM.
O=C(Nc1nc2ncn(CCI)c2c(=O)[nH]1)c1ccccc1 was tested, and the TGI [1] was greater than 100 µM, the TGI [2] was greater than 100 µM and the TGI [3] was greater than 100 µM. For the same compound, the TGI [4] was greater than 100 µM, the TGI [5] was 59.3 µM and the TGI [6] was greater than 100 µM. For the same compound, the TGI [7] was 83.3 µM and the TGI [8] was greater than 92.3 µM.
Compound CNCCCn1cc(C2=C(c3cn(C)c4ccccc34)C(=O)NC2=O)c2ccccc21 has a GI50 [1] of 3.46 µM, a TGI [1] of 14.2 µM and a GI50 [2] of 4.01 µM. It also gave a TGI [2] of 8.71 µM, a GI50 [5] of 3.48 µM and a TGI [5] of 6.95 µM. For the same compound, the GI50 [6] was 5 µM, the TGI [6] was 19.1 µM and the GI50 [7] was 4.29 µM. The TGI [7] was 8.35 µM, the GI50 [8] was 4.3 µM and the TGI [8] was 8.52 µM. For the same compound, the GI50 [10] was 4.81 µM and the TGI [10] was 8.83 µM.
CCC[CH2][Sn]([CH2]CCC)([CH2]CCC)[O]C(=O)CC gave a GI50 [1] of 0.237 µM, a GI50 [2] of 0.149 µM and a TGI [2] of 0.299 µM. For the same compound, the GI50 [5] was 0.14 µM, the TGI [5] was 0.285 µM and the GI50 [6] was 0.247 µM. The TGI [6] was 1 µM, the GI50 [7] was 0.12 µM and the TGI [7] was 0.256 µM. It also gave a GI50 [8] of 0.186 µM, a TGI [8] of 0.37 µM and a GI50 [10] of 0.15 µM. It also gave a TGI [10] of 0.344 µM.
Work on O=C(Nc1ccc(OS(=O)(=O)c2ccccc2)cc1)C12CC3CC(CC(C3)C1)C2 yielded a GI50 [1] of 0.576 µM, a TGI [1] greater than 100 µM and a GI50 [2] of 4.36 µM. It also gave a TGI [2] greater than 100 µM, a GI50 [5] of 5.12 µM and a TGI [5] greater than 100 µM. It also gave a GI50 [6] of 5.05 µM, a TGI [6] greater than 100 µM and a GI50 [7] of 2.04 µM. It also gave a TGI [7] of 48.7 µM, a GI50 [8] greater than 100 µM and a TGI [8] greater than 100 µM. The GI50 [10] was 3.24 µM and the TGI [10] was greater than 100 µM.
For CS(=O)(=O)N/N=C/CN1C(=O)c2ccccc2C1=O, the TGI [1] was greater than 100 µM, the TGI [2] was greater than 100 µM and the TGI [3] was greater than 100 µM. It also gave a TGI [9] greater than 100 µM, a TGI [4] greater than 100 µM and a TGI [6] greater than 100 µM. For the same compound, the TGI [7] was greater than 100 µM and the TGI [8] was greater than 100 µM.
With CCCCOC(=O)C1C(c2ccc(Cl)cc2)NC(c2ccc(Cl)cc2)C(C(=O)OCCCC)S1(=O)=O (stereo not given) the TGI [1] was greater than 100 µM, the TGI [2] was greater than 100 µM and the TGI [9] was greater than 100 µM. The TGI [4] was greater than 100 µM, the TGI [5] was greater than 100 µM and the TGI [6] was greater than 100 µM. The TGI [7] was greater than 100 µM and the TGI [8] was greater than 100 µM.
For O=C(OCc1ccc2cccc(O)c2n1)N1CCN(C(=O)c2cc3cc(F)ccc3[nH]2)CC1, the GI50 [1] was 0.435 µM, the TGI [1] was 2.4 µM and the GI50 [2] was 1.02 µM. For the same compound, the TGI [2] was 2.47 µM, the GI50 [5] was 0.981 µM and the TGI [5] was 2.17 µM. The GI50 [6] was 0.334 µM, the TGI [6] was 1.37 µM and the GI50 [7] was 1.71 µM. It also gave a TGI [7] of 3.25 µM, a GI50 [8] of 1.35 µM and a TGI [8] of 2.78 µM. For the same compound, the GI50 [10] was 1 µM and the TGI [10] was 2.21 µM.
With O=c1n(CC2CO2)c(=O)n(CC2CO2)c(=O)n1CC1CO1 (stereo not given) the GI50 [1] was 40.3 µM and 26.5 µM, the TGI [1] was 308 µM and > 100 µM and the GI50 [2] was 11.2 µM and 3.9 µM. For the same compound, the TGI [2] was 28 µM and 45.8 µM and 22.9 µM, the TGI [3] was 199 µM and the TGI [9] was 143 µM. For the same compound, the GI50 [5] was 4.01 µM, the TGI [5] was 109 µM and 23.8 µM and the GI50 [6] was 5.09 µM and 2.95 µM. The TGI [6] was 210 µM and > 100 µM, the GI50 [7] was 12.2 µM and the TGI [7] was 83.9 µM and 26.5 µM. For the same compound, the GI50 [8] was 36.9 µM and 33 µM, the TGI [8] was 215 µM and > 100 µM and the GI50 [10] was 13.6 µM. For the same compound, the TGI [10] was 67 µM and > 100 µM.
In the case of COCCOc1cc(F)c2c(Nc3ccc(NC(=O)Cn4cc(C(C)C)nn4)cc3)ncnc2c1, the GI50 [1] is reported as 10.2 µM, the TGI [1] is reported as greater than 100 µM and the GI50 [2] is reported as 35.5 µM. The TGI [2] was greater than 100 µM, the GI50 [5] was 10.2 µM and the TGI [5] was greater than 100 µM. It also gave a GI50 [6] greater than 100 µM, a TGI [6] greater than 100 µM and a GI50 [7] greater than 100 µM. The TGI [7] was greater than 100 µM, the GI50 [8] was 44.7 µM and the TGI [8] was greater than 100 µM. The GI50 [10] was 33.6 µM and the TGI [10] was greater than 100 µM.
With Cc1ccc(Cl)cc1Nc1nc(C(F)(F)F)ccc1C(=O)N1CCN(c2ccc(F)cc2)CC1 the GI50 [1] was 9.53 µM, the TGI [1] was 30 µM and the GI50 [2] was 12.3 µM. The TGI [2] was 30.2 µM, the GI50 [5] was 11.2 µM and the TGI [5] was 29.9 µM. For the same compound, the GI50 [6] was 9.91 µM, the TGI [6] was 46.6 µM and the GI50 [7] was 6.03 µM. For the same compound, the TGI [7] was 20.2 µM, the GI50 [8] was 16.1 µM and the TGI [8] was 37.1 µM. The GI50 [10] was 12.8 µM and the TGI [10] was 26.3 µM.
COc1ccc(NC(=O)CCc2cc(-c3ccc(O)c(OC)c3)nc(NC#N)n2)cc1 gave a TGI [1] greater than 100 µM, a TGI [3] greater than 100 µM and a TGI [9] greater than 100 µM. The TGI [4] was greater than 100 µM, the TGI [5] was greater than 100 µM and the TGI [6] was greater than 100 µM. It also gave a TGI [8] greater than 100 µM.
COc1ccc(C(=O)c2cc(OC)c(C)c(OC)c2)cc1OC(=O)CCl gave a GI50 [1] of 0.0538 µM, a TGI [1] greater than 100 µM and a GI50 [2] of 0.21 µM. It also gave a TGI [2] of 14.1 µM, a GI50 [5] of 0.33 µM and a TGI [5] of 32.5 µM. For the same compound, the GI50 [6] was 0.145 µM, the TGI [6] was 18 µM and the GI50 [7] was 2.09 µM. The TGI [7] was 7.39 µM, the GI50 [8] was 0.671 µM and the TGI [8] was 66.1 µM. The GI50 [10] was 0.395 µM and the TGI [10] was 10.3 µM.
